Measured values from patent US6962929B2, “Pentafluorobenzenesulfonamides and analogs” (Tularik Inc., priority 1996, dated 2005).
pIC50: −log10 of the molar value.

Tested on: not given
Assay: not given
Conditions: not given

melting point [°C]	Compound
102 to 103	COc1ccc(NS(=O)(=O)c2c(F)c(F)c(F)c(F)c2F)cc1 [Example 8, 4-Methoxy-1-pentafluorophenylsulfonamidobenzene]
144 to 145	O=S(=O)(Nc1ccc(Cl)nc1)c1c(F)c(F)c(F)c(F)c1F [Example 36, 2-Chloro-5-pentafluorophenylsulfonamidopyridine]
118	COc1ccc(N(CCCCCO)S(=O)(=O)c2c(F)c(F)c(F)c(F)c2F)cc1O [Example 37, 2-Hydroxy-1-methoxy-4-(N-(5-hydroxypentyl)-pentafluorophenylsulfonamido)benzene]
109	COc1cc(Br)c(NS(=O)(=O)c2c(F)c(F)c(F)c(F)c2F)cc1F [Example 41, 1-Bromo-4-fluoro-5-methoxy-2-pentafluorophenylsulfonamidobenzene]
121 to 123	COc1ccc(NS(=O)(=O)c2c(F)c(F)c(F)c(F)c2F)cc1C(F)(F)F [Example 49, 4-Methoxy-1-pentafluorophenylsulfonamido-3-trifluoromethylbenzene]
59 to 60	C=CCN(c1ccc(OC)cc1)S(=O)(=O)c1c(F)c(F)c(F)c(F)c1F [Example 50, 4-Methoxy-1-(N-(2-propenyl)pentafluorophenylsulfonamido)benzene]
64 to 66	C=CCCN(c1ccc(OC)cc1)S(=O)(=O)c1c(F)c(F)c(F)c(F)c1F [Example 51, 1-(N-(3-Butenyl)pentafluorophenylsulfonamido)-4-methoxybenzene]
130 to 131	COc1ccc(N(CC(O)CO)S(=O)(=O)c2c(F)c(F)c(F)c(F)c2F)cc1 (stereo not drawn) [Example 53, 1-(N-(2,3-Dihydroxypropyl)pentafluorophenylsulfonamido)-4-methoxybenzene]
126 to 128	COc1ccc(N(CCC(O)CO)S(=O)(=O)c2c(F)c(F)c(F)c(F)c2F)cc1 (stereo not drawn) [Example 54, 1-(N-(3,4-Dihydroxybutyl)pentafluorophenylsulfonamido)-4-methoxybenzene]
116 to 118	COc1ccc(N(CCCC(O)CO)S(=O)(=O)c2c(F)c(F)c(F)c(F)c2F)cc1 (stereo not drawn) [Example 55, 1-(N-(4,5-Dihydroxypentyl)pentafluorophenylsulfonamido)-4-methoxybenzene]
88 to 90	COc1ccc(N(CCCCO)S(=O)(=O)c2c(F)c(F)c(F)c(F)c2F)cc1 [Example 56, 1-(N-(4-hydroxybutyl)pentafluorophenylsulfonamido)-4-methoxybenzene]
96 to 97	COc1ccc(N(CCCCCO)S(=O)(=O)c2c(F)c(F)c(F)c(F)c2F)cc1 [Example 57, 4-Methoxy-1-(N-(5-hydroxypentyl)pentafluorophenylsulfonamido)benzene]
95 to 97	COc1ccc(NS(=O)(=O)c2c(F)c(F)c(F)c(F)c2F)cc1[N+](=O)[O-] [Example 58, 4-Methoxy-3-nitro-1-pentafluorophenylsulfonamidobenzene]
142 to 143	COc1ccc(NS(=O)(=O)c2c(F)c(F)c(F)c(F)c2F)cc1N [Example 59, 3-Amino-4-methoxy-1-pentafluorophenylsulfonamidobenzene]

Tested on: tubulin
Assay: Irreversible labeling of cellular protein by tritiated compounds in MCF7 cells
Format: binding
Conditions: tritiated form; human breast carcinoma MCF7 cells
Excerpt: Preferred compounds display specific toxicity to various types of cells. Certain compounds and compositions of the present invention exert their cytotoxic effects by interacting with cellular tubulin. For certain preferred compounds and compositions of the present invention, that interaction is covalent and irreversible. […] This protein is a key component of microtubules, which constitute the cytoskeleton and also play critical roles in many other aspects of the cell's physiology, including cell division. The labeling of tubulin by the subject preferred compounds is also shown to be dose-dependent. The site of covalent binding on tubulin is identified as Cysteine-239 on the β-tubulin chain. The same Cys-239 residue is selectively covalently modified when present in a wide variety of Cys-239 containing β-tubulin petides (e.g. Ser-234 to Met-267) provided in vitro or in vivo. One embodiment of these preferred compounds provides the binding mechanism shown in Scheme IV, namely, displacement of the para-fluorine atom by the thiol group of Cys-239.

Compound	labeling of cellular protein
[3H]c1cc(OC)c(F)cc1NS(=O)(=O)c1c(F)c(F)c(F)c(F)c1F [Example 72, 4-[3H]-1-Fluoro-2-methoxy-5-pentafluorosulfonamidobenzene]	irreversible labeling of only one detectable cellular protein, which was found to be tubulin

Tested on: HeLa cells
Assay: Inhibition of in vitro growth of HeLa cells (Alamar Blue uptake)
Format: cell-based, human
Conditions: Homo sapiens; concentration required to inhibit by 50% the uptake of Alamar Blue by HeLa cell cultures
Method: Compounds were evaluated for their ability to inhibit in vitro the growth of HeLa cells, an immortal cell line derived from a human cervical carcinoma commonly used to evaluate the cytotoxicity of potential therapeutic agents. The following data reflect the cytotoxicity of selected examples of the present invention. The values given represent the concentration of test compound required to inhibit by 50% the uptake of Alamar Blue (Biosource International, Camarillo, Calif.) by HeLa cell cultures, which correlates directly with the overall levels of cellular metabolism in the culture, and is generally accepted as an appropriate marker of cell growth. The test was conducted according to the method of S. A. Ahmed et al. (1994) J. Immunol. Methods 170: 211-224.

pIC50	Compound
> 7.30	CN(C)c1ccc(NS(=O)(=O)c2c(F)c(F)c(F)c(F)c2F)cc1 [Example 1, 4-(N,N-Dimethylamino)-1-pentafluorophenylsulfonamidobenzene]
6.82	CN(C)c1cccc(NS(=O)(=O)c2c(F)c(F)c(F)c(F)c2F)c1 [Example 2, 3-(N,N-Dimethylamino)-1-pentafluorophenylsulfonamidobenzene]
5.82	O=S(=O)(Nc1ccc2c(c1)OCCO2)c1c(F)c(F)c(F)c(F)c1F [Example 3, 1,2-Ethylenedioxy-4-pentafluorophenylsulfonamidobenzene]
5.00	O=S(=O)(Nc1ccc2c(c1)OCO2)c1c(F)c(F)c(F)c(F)c1F [Example 4, 1,2-Methylenedioxy-4-pentafluorophenylsulfonamidobenzene]
> 7.30	COc1ccc(NS(=O)(=O)c2c(F)c(F)c(F)c(F)c2F)cc1O [Example 6, 2-Hydroxy-1-methoxy-4-pentafluorophenylsulfonamidobenzene]
> 7.30	COc1ccc(NS(=O)(=O)c2c(F)c(F)c(F)c(F)c2F)cc1 [Example 8, 4-Methoxy-1-pentafluorophenylsulfonamidobenzene]
6.00	O=S(=O)(Nc1cccc(O)c1)c1c(F)c(F)c(F)c(F)c1F [Example 9, 3-Hydroxy-1-pentafluorophenylsulfonamidobenzene]
6.82	CCN(CC)c1ccc(NS(=O)(=O)c2c(F)c(F)c(F)c(F)c2F)cc1 [Example 12, 4-(N,N-Diethylamino)-1-pentafluorophenylsulfonamidobenzene]
6.00	O=S(=O)(Nc1ccc2[nH]ncc2c1)c1c(F)c(F)c(F)c(F)c1F [Example 15, 5-Pentafluorophenylsulfonamidoindazole]
5.00	CN(C)c1ccc(N(C)S(=O)(=O)c2c(F)c(F)c(F)c(F)c2F)cc1 [Example 17, 4-(N,N-Dimethylamino)-1-(N-methylpentafluorophenylsulfonanido)benzene]
5.00	O=S(=O)(Nc1ccc(N2CCOCC2)cc1)c1c(F)c(F)c(F)c(F)c1F [Example 25, 4-(1-Morpholino)-1-pentafluorophenylsulfonamidobenzene]
5.82	COc1ccc(N(C)S(=O)(=O)c2c(F)c(F)c(F)c(F)c2F)cc1F [Example 30, 2-Fluoro-1-methoxy-4-(N-methylpentafluorophenylsulfonamido)benzene]
6.30	COc1ccc(NS(=O)(=O)c2c(F)c(F)c(F)c(F)c2F)cc1Br [Example 31, 2-Bromo-1-methoxy4-pentafluorophenylsulfonamidobenzene]

Compound	pIC50
COc1ccc(NS(=O)(=O)c2c(F)c(F)c(F)c(F)c2F)cc1F [Example 7, 2-Fluoro-1-methoxy-4-pentafluorosulfonamidobenzene]	> 7.30

Same assay, conditions: concentration required to inhibit by 50% the uptake of Alamar Blue by HeLa cell cultures

pIC50	Compound
7.00	COc1ccc(NS(=O)(=O)c2c(F)c(F)c(F)c(F)c2F)cc1Cl [Example 32, 2-Chloro-1-methoxy-4-pentafluorophenylsulfonamidobenzene]
